Article PMC5218480 (PLoS ONE, 2017)

Tested on: MV-4-11 cells
Test: Gene expression microarray analysis (Affymetrix PrimeView) and GSEA
Format: cell-based, human
Details: MV-4-11, 48 hours, 1 μM each

Nc1ccc(-c2cccs2)cc1NC(=O)c1ccc2c(c1)cc(C1CC1)n2CCN1CCOCC1 [ACY-1035]
genes up-regulated greater than 2-fold relative to vehicle control: 386 genes
